A value given as a limit tells only on which side of the number the result lay.

One may read the IC50 as the concentration at which inhibition is half-maximal.

In the assay the test system is c-Myc. In words: c-Myc ELISA assay protocol in 22RV-1 cells. Type of assay: cell-based, human. Conditions: 18 h, read-out: cMyc IC50. How it is done: In each bioassay, cells were treated with varying amounts of compounds encompassed by the present disclosure, as shown in Table 1. The degradation of the following proteins were evaluated in this study: TANK-binding kinase 1 (TBK1), estrogen receptor α (ERα), bromodomain-containing protein 4 (BRD4), androgen receptor (AR), and c-Myc.
5. c-Myc ELISA Assay Protocol
22RV-1 cells were purchased from ATCC and cultured in RPMI+10% FBS media. Cells were harvested using trypsin (Gibco #25200-114), counted and seeded at 30,000 cells/well at a volume of 75 μL/well in RPMI +10% FBS media in 96-well plates. The cells were dosed with compounds diluted in 0.1% DMSO, incubated for 18 h then washed and lysed in 50 uL RIPA buffer (50 mM Tris pH8, 150 mM NaCl, 1% Tx-100, 0.1% SDS, 0.5% sodium deoxycholate) supplemented with protease and phosphatase inhibitors. The lysates were clarified at 4000 rpm at 4° C. for 10 minutes then aliquots were added into a 96-well ELISA plate of Novex Human c-myc ELISA kit from Life Technologies Catalog #KHO2041. 50 ul of c-Myc Detection antibody was added into every well, the plates incubated at room temperature for 3 hrs, then washed with ELISA wash buffer. 100 uL of the anti-rabbit IgG-HRP secondary antibody was added to each well and incubated at room temperature for 30 minutes. The plates were washed with ELISA wash buffer, 100 μL TMB added to each well, and then monitored every 5 minutes for a color change. 100 μL of stop solution is added and the plates read at 450 nm.
In general terms: In an ELISA, binding on a coated surface is turned into a signal by an enzyme label.
Consider `Cc1sc2c(c1C)C(c1ccc(Cl)cc1)=N[C@@H](CC(=O)N[C@@H](C)c1ccc(OCCCCNc3cccc4c3C(=O)N(C3CCC(=O)NC3=O)C4=O)cc1)c1nnc(C)n1-2` (stereo partly drawn) [Compound 23, 2-((9S)-7-(4-chlorophenyl)-4,5,13-trimethyl-3-thia-1,8,11,12-tetraazatricyclo [8.3.0.02,6]trideca-2(6),4,7,10, 12-pentaen-9-yl)-N-((1S)-1-(4-(4-((2-(2,6-dioxopiperidin-3-yl)-1,3-dioxo-2,3-dihydro-1H-isoindol-4-yl)amino)butoxy)phenyl)ethyl) acetamide], for which the IC50 is greater than 50 nM.

On to `Cc1sc2c(c1C)C(c1ccc(Cl)cc1)=N[C@@H](CC(=O)NCCCOCCCNc1cccc3c1C(=O)N(C1CCC(=O)NC1=O)C3=O)c1nnc(C)n1-2` (stereo partly drawn) [Compound 24, 2-((9S)-7-(4-chlorophenyl)-4,5,13-trimethyl-3-thia-1,8,11,12-tetraazatricyclo [8.3.0.02,6]trideca-2(6),4,7,10, 12-pentaen-9-yl)-N-(3-(3-((2-(2,6-dioxopiperidin-3-yl)-1,3-dioxo-2,3-dihydro-1H-isoindol-4-yl)amino)propoxy)propyl)acetamide], for which the IC50 is less than 50 nM.

Turning to `Cc1sc2c(c1C)C(c1ccc(Cl)cc1)=N[C@@H](CC(=O)NCCCNc1cccc3c1C(=O)N(C1CCC(=O)NC1=O)C3=O)c1nnc(C)n1-2` (stereo partly drawn) [Compound 25, 2-((9S)-7-(4-chlorophenyl)-4,5,13-trimethyl-3-thia-1,8,11,12-tetraazatricyclo [8.3.0.02,6]trideca-2(6),4,7,10,12-pentaen-9-yl)-N-(3-((2-(2,6-dioxopiperidin-3-yl)-1,3-dioxo-2,3-dihydro-1H-isoindol-4-yl)amino)propyl) acetamide], the IC50 is greater than 50 nM.

With `Cc1sc2c(c1C)C(c1ccc(Cl)cc1)=N[C@@H](CC(=O)NCCOCCNc1cccc3c1C(=O)N(C1CCC(=O)NC1=O)C3=O)c1nnc(C)n1-2` (stereo partly drawn) [Compound 27, 2-((9S)-7-(4-chlorophenyl)-4,5,13-trimethyl-3-thia-1,8,11,12-tetraazatricyclo [8.3.0.02,6]trideca-2(6),4,7,10,12-pentaen-9-yl)-N-(2-(2-((2-(2,6-dioxopiperidin-3-yl)-1,3-dioxo-2,3-dihydro-1H-isoindol-4-yl)amino)ethoxy)ethyl)acetamide], the IC50 was less than 50 nM.

Turning to `Cc1sc2c(c1C)C(c1ccc(Cl)cc1)=N[C@@H](CC(=O)N[C@H](C)c1ccc(OCCCCNc3cccc4c3C(=O)N(C3CCC(=O)NC3=O)C4=O)cc1)c1nnc(C)n1-2` (stereo partly shown) [Compound 28], the IC50 is less than 50 nM.

Take `Cc1sc2c(c1C)C(c1ccc(Cl)cc1)=N[C@@H](CC(=O)N[C@H](C)c1ccc(OCCOCCNc3cccc4c3C(=O)N(C3CCC(=O)NC3=O)C4=O)cc1)c1nnc(C)n1-2` (stereo partly drawn) [Compound 29, 2-((9S)-7-(4-chlorophenyl)-4,5,13-trimethyl-3-thia-1,8,11,12-tetraazatricyclo [8.3.0.02,6]trideca-2(6),4,7,10, 12-pentaen-9-yl) N-((1R)-1-(4-(2-(2-((2-(2,6-dioxopiperidin-3-yl)-1,3-dioxo-2,3-dihydro-1H-isoindol-4-yl)amino)ethoxy)ethoxy)phenyl)ethyl) acetamide]: the IC50 is less than 50 nM.

On to `Cc1sc2c(c1C)C(c1ccc(Cl)cc1)=N[C@@H](CC(=O)N[C@H](C)c1ccc(OCCCNc3cccc4c3C(=O)N(C3CCC(=O)NC3=O)C4=O)cc1)c1nnc(C)n1-2` (stereo partly drawn) [Compound 30, 2-((9S)-7-(4-chlorophenyl)-4,5,13-trimethyl-3-thia-1,8,11,12-tetraazatricyclo [8.3.0.02,6]trideca-2(6),4,7,10, 12-pentaen-9-yl)-N-((1R)-1-(4-(3-((2-(2,6-dioxopiperidin-3-yl)-1,3-dioxo-2,3-dihydro-1H-isoindol-4-yl)amino)propoxy)phenyl)ethyl) acetamide], for which the IC50 is less than 50 nM.

As for `Cc1sc2c(c1C)C(c1ccc(Cl)cc1)=N[C@@H](CC(=O)Nc1cnc(-c3ccc(OCCCNc4cccc5c4C(=O)N(C4CCC(=O)NC4=O)C5=O)cc3)nc1)c1nnc(C)n1-2` (stereo partly drawn) [Compound 31, 2-((9S)-7-(4-chlorophenyl)-4,5,13-trimethyl-3-thia-1,8,11,12-tetraazatricyclo [8.3.0.02,6]trideca-2(6),4,7,10, 12-pentaen-9-yl)-N-(2-(4-(3-((2-(2,6-dioxopiperidin-3-yl)-1,3-dioxo-2,3-dihydro-1H-isoindol-4-yl)amino)propoxy)phenyl)pyrimidin-5-yl)acetamide], the IC50 is less than 50 nM.

With `Cc1sc2c(c1C)C(c1ccc(Cl)cc1)=N[C@@H](CC(=O)Nc1ccc(OCCCOCCNc3cccc4c3C(=O)N(C3CCC(=O)NC3=O)C4=O)c(F)c1)c1nnc(C)n1-2` (stereo partly drawn) [Compound 32, 2-((9S)-7-(4-chlorophenyl)-4,5,13-trimethyl-3-thia-1,8,11,12-tetraazatricyclo [8.3.0.02,6]trideca-2(6),4,7,10, 12-pentaen-9-yl)-N-(4-(3-(2-((2-(2,6-dioxopiperidin-3-yl)-1,3-dioxo-2,3-dihydro-1H-isoindol-4-yl)amino)ethoxy)propoxy)-3-fluorophenyl) acetamide], the IC50 was less than 50 nM.

Turning to `Cc1sc2c(c1C)C(c1ccc(Cl)cc1)=N[C@@H](CC(=O)Nc1ccc(OCCCCOCCCNc3cccc4c3C(=O)N(C3CCC(=O)NC3=O)C4=O)cc1F)c1nnc(C)n1-2` (stereo partly drawn) [Compound 33, 2-((9S)-7-(4-chlorophenyl)-4,5,13-trimethyl-3-thia-1,8,11,12-tetraazatricyclo [8.3.0.02,6]trideca-2(6),4,7,10, 12-pentaen-9-yl)-n-(4-(4-(3-((2-(2,6-dioxopiperidin-3-yl)-1,3-dioxo-2,3-dihydro-1h-isoindol-4-yl)amino)propoxy)butoxy)-2-fluorophenyl) acetamide], the IC50 was less than 50 nM.

On to `Cc1sc2c(c1C)C(c1ccc(Cl)cc1)=N[C@@H](CC(=O)Nc1ccc(OCCCCOCCCNc3cccc4c3C(=O)N(C3CCC(=O)NC3=O)C4=O)c(F)c1)c1nnc(C)n1-2` (stereo partly drawn) [Compound 34, 2-((9S)-7-(4-chlorophenyl)-4,5,13-trimethyl-3-thia-1,8,11,12-tetraazatricyclo [8.3.0.02,6]trideca-2(6),4,7,10, 12-pentaen-9-yl)-N-(4-(4-(3-((2-(2,6-dioxopiperidin-3-yl)-1,3-dioxo-2,3-dihydro-1H-isoindol-4-yl)amino)propoxy)butoxy)-3-fluorphenyl) acetamide], for which the IC50 is less than 50 nM.

Consider `Cc1sc2c(c1C)C(c1ccc(Cl)cc1)=N[C@H](CC(=O)Nc1ccc(OCCOCCOCCOCCNc3cccc4c3CN(C3CCC(=O)NC3=O)C4=O)cc1)c1nnc(C)n1-2` (stereo partly drawn) [Compound 35, 2-((9R)-7-(4-chlorophenyl)-4,5,13-trimethyl-3-thia-1,8,11,12-tetraazatricyclo [8.3.0.02,6]trideca-2(6),4,7,10, 12-pentaen-9-yl)-N-(4-((1-(2-(2,6-dioxopiperidin-3-yl)-1-oxo-2,3-dihydro-1H-isoindol-4-yl)-4,7,10-trioxa-1-azadodecan-12-yl)oxy)phenyl) acetamide], for which the IC50 is less than 50 nM.

With `Cc1sc2c(c1C)C(c1ccc(Cl)cc1)=N[C@@H](CC(=O)N[C@@H](C)c1ccc(-c3ncc(OCCOCCNc4cccc5c4C(=O)N(C4CCC(=O)NC4=O)C5=O)cn3)cc1)c1nnc(C)n1-2` (stereo partly drawn) [Compound 36, 2-[(9S)-7-(4-chlorophenyl)-4,5,13-trimethyl-3-thia-1,8,11,12-tetraazatricyclo [8.3.0.0^2,^6]trideca-2(6),4,7,10,12-pentaen-9-yl]-N-[(1S)-1-(4-{5-[2-(2-{[2-(2,6-dioxopiperidin-3-yl)-1,3-dioxo-2,3-dihydro-1H-isoindol-4-yl]amino}ethoxy)ethoxy]pyrimidin-2-yl}phenyl)ethyl] acetamide], the IC50 is less than 50 nM.

As for `Cc1sc2c(c1C)C(c1ccc(Cl)cc1)=N[C@@H](CC(=O)NCCOCCOCCNc1cccc3c1C(=O)N(C1CCC(=O)NC1=O)C3=O)c1nnc(C)n1-2` (stereo partly drawn) [Compound 37, 2-[(9S)-7-(4-chlorophenyl)-4,5,13-trimethyl-3-thia-1,8,11,12-tetraazatricyclo [8.3.0.0^2,^6]trideca-2(6),4,7,10,12-pentaen-9-yl]-N-{2-[2-(2-{[2-(2,6-dioxopiperidin-3-yl)-1,3-dioxo-2,3-dihydro-1H-isoindol-4-yl]amino}ethoxy)ethoxy]ethyl} acetamide], the IC50 was less than 50 nM.

For the compound `Cc1sc2c(c1C)C(c1ccc(Cl)cc1)=N[C@@H](CC(=O)N[C@H](C)c1ccc(OCCOCCNc3cccc4c3CN(C3CCC(=O)NC3=O)C4=O)cc1)c1nnc(C)n1-2` (stereo partly shown) [Compound 38], the IC50 is less than 50 nM.

As for `Cc1sc2c(c1C)C(c1ccc(Cl)cc1)=N[C@@H](CC(=O)NCCOCCNc1cccc3c1CN(C1CCC(=O)NC1=O)C3=O)c1nnc(C)n1-2` (stereo partly drawn) [Compound 39, 2-[(9S)-7-(4-chlorophenyl)-4,5,13-trimethyl-3-thia-1,8,11,12-tetraazatricyclo [8.3.0.0^2,^6]trideca-2(6),4,7,10,12-pentaen-9-yl]-N-[2-(2-{[2-(2,6-dioxopiperidin-3-yl)-1-oxo-2,3-dihydro-1H-isoindol-4-yl]amino}ethoxy)ethyl]acetamide], the IC50 is greater than 50 nM.

Values taken from patent US11834460B2, “Imide-based modulators of proteolysis and associated methods of use” (YALE UNIVERSITY, priority 2018, dated 2023).
